According to PMC13197777, “Distinct 2-phenylimidazo[1,2-a]pyridine derivatives that inhibit breast cancer cell proliferation identified as AHR ligands” (iScience, 2026):

Legend:
[1] = Parallel artificial membrane permeability assay (PAMPA); details: for Conc. acceptor well / Conc. donor well: PAMPA after incubation
Procedure: The plates were stored at – 20 °C until ready for use. Prior to use, the plate was prewarmed at room temperature for 30 min. Donor- and acceptor solutions were prepared as 12 mM phosphate buffered saline with a pH of 6.5 (donor) respectively 7.4 (acceptor). […] Then, 300 μL of each donor solution were filled into the donor (bottom) wells of the PAMPA plate. 200 μL of the acceptor medium were loaded into each well of the pre-coated receiver plate (top). […] The compound concentrations in the donor- and acceptor wells were then determined using a Jasco 2 HPLC system equipped with a ReproSil-Pur 120 ODS-3 column (5 μm, 50 × 2 mm) and UV detection. […] The injection volume was 40 μL and the flow rate 1 mL/min. […] For X15695, two calibration curves were prepared in the presence (donor well) and absence (acceptor well) of 10% ethanol. (Figure S6). The experiments were performed in triplicates.
Where cA(t) is the compound concentration in the acceptor well in μmol⋅l^−1, cD(t) is the compound concentration in the donor well in […], VA and VD is the volume of the acceptor respectively donor solution per well in mL, A is the membrane area in cm^2 and t the incubation time in seconds (Table S3).

[2] = system: ER+ MCF-7, ZR75–1, and T47D breast cancer cells; parameters: method as in PMID 37520743; details: previously identified ref 17; cited from earlier work
ERα full-length = biological target: T1, ERα full-length (Homo sapiens, UniProt P03372); experiment: PolarScreen ERα Competitor Assay (fluorescence polarization); format: binding
T1 construct: 34 nM ERα full-length and 1.4 nM Fluormone EL Red were incubated; purchased ThermoFisher A15884
T1 sequence (P03372 1-595): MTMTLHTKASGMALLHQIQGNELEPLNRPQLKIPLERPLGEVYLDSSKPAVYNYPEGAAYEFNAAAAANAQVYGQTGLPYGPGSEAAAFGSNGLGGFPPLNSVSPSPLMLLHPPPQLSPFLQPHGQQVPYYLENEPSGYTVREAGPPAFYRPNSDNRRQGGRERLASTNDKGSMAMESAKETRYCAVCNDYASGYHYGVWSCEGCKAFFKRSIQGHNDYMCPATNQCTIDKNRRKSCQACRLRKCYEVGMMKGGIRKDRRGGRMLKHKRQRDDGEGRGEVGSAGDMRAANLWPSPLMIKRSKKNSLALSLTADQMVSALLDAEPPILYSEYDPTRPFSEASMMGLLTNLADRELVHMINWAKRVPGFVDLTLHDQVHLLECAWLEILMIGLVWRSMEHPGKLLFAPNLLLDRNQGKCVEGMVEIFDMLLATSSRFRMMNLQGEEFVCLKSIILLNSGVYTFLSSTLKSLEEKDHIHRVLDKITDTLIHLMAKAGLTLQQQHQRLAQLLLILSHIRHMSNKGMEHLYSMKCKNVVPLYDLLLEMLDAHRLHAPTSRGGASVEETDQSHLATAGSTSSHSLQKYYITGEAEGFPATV
Procedure: The PolarScreen Estrogen Receptor-Alpha Competitor Assay, Red (ThermoFisher, A15884) was used to determine if the X compounds bind to ERα. The assay was performed according to the manufacturer’s protocol.

ERα in MCF-7 cells = experiment: Immunoblot of ERα in MCF-7 cells; format: cell-based, human; details: MCF-7, 48 h, increasing concentrations up to 1 μM
Procedure: To determine the relative expression of proteins by Western blotting, cells were first washed with ice-cold phosphate buffered saline (PBS). Subsequently, they were lysed in ice-cold NP40 lysis buffer (1%NP-40, 50 mM Tris-HCl, pH 8.0, 150 mM NaCl, 5 mM Ethylenediaminetetraacetic acid [EDTA], 1 mM PMSF) on ice. DNA was degraded by sonification (five pulses at 50 amplitudes). Protein concentration was determined, and equal amounts of protein were separated on a 9% SDS-PAGE gel. The proteins were transferred onto nitrocellulose membrane by a standard Western blotting protocol and the membranes were incubated with the following antibodies: ERα (Santa Cruz Biotechnology, sc-8002, RRID: AB_627558) and PCNA (Santa Cruz Biotechnology, sc-56, RRID: AB_628110), followed by incubation with HRP labeled Goat anti-mouse Immunoglobulins (DAKO, P0447, RRID: AB_2617137).

AHR-Hsp90-XAP2 = biological target: T2, AHR-Hsp90-XAP2 (Homo sapiens, UniProt P35869); experiment: Thermal stability measurements (nano-DSF); format: binding; details: 2.5 μM protein, 12.5 μM compound
T2 construct: made in house
T2 sequence (P08238 whole entry partner, one chain of several): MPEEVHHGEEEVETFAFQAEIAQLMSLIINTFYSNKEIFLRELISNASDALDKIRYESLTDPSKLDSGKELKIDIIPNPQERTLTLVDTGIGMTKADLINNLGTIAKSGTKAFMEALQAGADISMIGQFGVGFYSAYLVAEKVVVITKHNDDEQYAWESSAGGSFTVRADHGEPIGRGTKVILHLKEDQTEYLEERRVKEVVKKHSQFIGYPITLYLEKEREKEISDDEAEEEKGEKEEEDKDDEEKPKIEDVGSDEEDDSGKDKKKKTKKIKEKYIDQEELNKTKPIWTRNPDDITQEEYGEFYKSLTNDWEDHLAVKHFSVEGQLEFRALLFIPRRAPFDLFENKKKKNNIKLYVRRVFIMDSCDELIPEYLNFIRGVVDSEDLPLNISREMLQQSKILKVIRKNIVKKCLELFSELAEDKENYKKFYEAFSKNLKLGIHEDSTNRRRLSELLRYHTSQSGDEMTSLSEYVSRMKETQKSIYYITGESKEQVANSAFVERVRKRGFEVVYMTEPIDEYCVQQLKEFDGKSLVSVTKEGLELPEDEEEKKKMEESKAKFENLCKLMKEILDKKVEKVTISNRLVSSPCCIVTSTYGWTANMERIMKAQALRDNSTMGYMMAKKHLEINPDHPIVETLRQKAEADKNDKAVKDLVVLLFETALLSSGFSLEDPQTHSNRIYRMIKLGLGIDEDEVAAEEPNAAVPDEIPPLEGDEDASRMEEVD
T2 sequence (O00170 whole entry partner, one chain of several): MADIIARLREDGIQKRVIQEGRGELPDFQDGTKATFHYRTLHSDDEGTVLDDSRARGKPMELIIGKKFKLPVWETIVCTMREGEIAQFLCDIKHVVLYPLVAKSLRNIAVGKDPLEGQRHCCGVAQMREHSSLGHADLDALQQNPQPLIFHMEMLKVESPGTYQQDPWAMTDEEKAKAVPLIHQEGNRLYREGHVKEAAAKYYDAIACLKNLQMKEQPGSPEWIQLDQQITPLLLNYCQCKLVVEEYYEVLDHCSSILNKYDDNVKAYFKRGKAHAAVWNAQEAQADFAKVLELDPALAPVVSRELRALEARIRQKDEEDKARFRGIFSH
Procedure: Thermal denaturation experiments of AHR complexes in the presence of compounds were performed using a Tycho NT.6 instrument (NanoTemper Technologies). Protein samples were prepared as previously described[67] and subsequently diluted in the buffer containing 20 mM Bis-Tris–HCl pH 7.0, 50 mM NaCl, 10 mM KCl, 10 mM MgCl2, 20 mM Na2MoO4 and 2 mM β-mercaptoethanol to a final protein concentration of 2.5 μM. Compound stock solutions were prepared at 20 mM in DMSO and added to the protein samples to yield a final concentration of 12.5 μM. For control measurements, DMSO was added to a final concentration of 5% (v/v). Following ligand or DMSO addition, the samples were gently mixed and incubated at room temperature for 10 min to allow equilibration. Thermal denaturation profiles were acquired over a temperature range of 35°C–95°C, with a heating rate of 1 °C per min. Fluorescence was monitored at emission wavelengths of 330 nm and 350 nm, and the data were analyzed as the first derivative of the fluorescence ratio (F330/F350) as a function of temperature. All experiments were performed in triplicate, and data were analyzed using the Tycho NT.6 software (NanoTemper Technologies) according to the manufacturer’s recommendations.

AHR = biological target: T3, AHR (Homo sapiens, UniProt P35869); experiment: AHR luciferase reporter assay in HAHLH cells; format: cell-based; details: 8 h, % of maximal luciferase activity with dioxin 10 nM, read-out: EC50 AHR transactivation
T3 construct: endogenous in cells; host or cells: HAHLH (HeLa with XRE-luciferase reporter)
T3 sequence (P35869 11-848): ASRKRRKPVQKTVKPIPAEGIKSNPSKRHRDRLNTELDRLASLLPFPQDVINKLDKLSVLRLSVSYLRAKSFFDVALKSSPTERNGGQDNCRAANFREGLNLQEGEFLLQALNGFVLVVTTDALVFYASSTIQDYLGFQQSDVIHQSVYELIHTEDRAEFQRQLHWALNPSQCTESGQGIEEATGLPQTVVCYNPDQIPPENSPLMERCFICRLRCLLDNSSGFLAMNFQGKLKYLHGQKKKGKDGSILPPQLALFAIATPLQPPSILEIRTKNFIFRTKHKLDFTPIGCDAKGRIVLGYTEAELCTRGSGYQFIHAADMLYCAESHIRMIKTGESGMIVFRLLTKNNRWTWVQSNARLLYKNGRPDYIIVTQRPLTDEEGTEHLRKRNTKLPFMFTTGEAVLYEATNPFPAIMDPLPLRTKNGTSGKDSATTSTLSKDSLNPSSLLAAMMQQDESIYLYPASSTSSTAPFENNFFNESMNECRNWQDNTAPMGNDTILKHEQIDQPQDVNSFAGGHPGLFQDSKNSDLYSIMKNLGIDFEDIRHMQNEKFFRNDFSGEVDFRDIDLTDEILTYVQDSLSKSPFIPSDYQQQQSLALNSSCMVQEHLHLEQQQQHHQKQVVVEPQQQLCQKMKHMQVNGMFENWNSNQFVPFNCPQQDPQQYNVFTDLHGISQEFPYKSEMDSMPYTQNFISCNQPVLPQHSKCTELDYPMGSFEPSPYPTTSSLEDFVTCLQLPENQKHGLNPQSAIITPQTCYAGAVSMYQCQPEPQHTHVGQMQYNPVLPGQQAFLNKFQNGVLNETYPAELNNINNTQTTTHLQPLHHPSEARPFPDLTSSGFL
Excerpt: To characterize the chemical induced AHR activity, we used the already established HAHLH reporter cell lines obtained by stably expression of HeLa cells with the dioxin-responsive gene XRE(TnGCGTG)3-tata-luciferase-Luc-hygromycin plasmid.[29] The reporter HELN hERα cell line was obtained by transfecting human HeLa cells with the ERE-responsive gene ERE-βGlobin-luciferase-Luc-neomycin and the pSG5-hERα-puromycin plasmids as previously described.[59] To determine the action of the chemical on AHR and hERα activity, cells were seeded at a density of 50,000 cells per well in 96-well white opaque tissue culture plates (Greiner CellStar) in 150 μL of Dulbecco’s Modified Eagle Medium: Nutrient Mixture F-12 (DMEM/F- 12) without phenol red and 1 g/L glucose and supplemented with 5% stripped fetal bovine serum, 100 units/mL of penicillin, 100 μg/mL of streptomycin (test medium). Twenty-four hours later, chemicals to be tested were added at 4x concentration in culture medium, and cells were incubated at 37 °C for 8 h (HAhLH cells) or 24 h (HELN hERα cells). At the end of the incubation period, culture medium was replaced with test medium containing 0.3 mM luciferin and luciferase activity was measured for 2 s in intact living cells using a MicroBeta Wallac luminometer (PerkinElmer). Tests were performed in quadruplicate at 4x concentration in the same medium in at least 4 independent experiments. Results were expressed as % of the maximal luciferase activity. […] Effective concentration (ECs) for a given compound, EC50 is defined as the concentration inducing 50% of its maximal effect. The EC50 values were calculated including the adjustment for the basal activity of the cell line.

MCF-7 cells = experiment: Clonogenic assay in MCF-7 cells with AHR antagonist CH223191; format: cell-based, human; details: MCF-7, 10 nM compound, 1 μM CH223191, 14 days
Procedure: Cells were seeded at a density of 1–2×10^3 cells/well in a 6-well plate and treated with increasing concentrations of the X compounds for 14–21 days. Medium and compounds were renewed every 7 days. The experiments were terminated by fixing the cells with methanol and the colonies formed were visualized after staining with 0.5% crystal violet (w/v) in 20% methanol (v/v). Plates were photographed and the area covered by the colonies was calculated using the ColonyArea Plugin for Fiji (RRID:SCR_003070).[20]

[3] = system: AHR target genes CYP1A1, CYP1B1, ALDH3A1; details: human, 16 h, 1 µM

**Q.** What does the source list for `Cn1c(=O)c2c(ncn2C)n(C)c1=O` [Caffeine]?
**A.** Papp at 5 h, 200 µM ([1]; PAMPA): 10.7 ×10⁻⁶ cm/s; Conc. acceptor well ([1]; replica 1): 43.91 µM; Conc. donor well ([1]; replica 1): 160.76 µM; Conc. acceptor well ([1]; replica 2): 41.44 µM; Conc. donor well ([1]; replica 2): 161.45 µM; Conc. acceptor well ([1]; replica 3): 46.38 µM; Conc. donor well ([1]; replica 3): 165.23 µM

**Q.** What does the source list for `Fc1ccccc1-c1cn2ccccc2n1` [X19712]?
**A.** Inhibition of Proliferation [2]: No; displacement of the Fluormone tracer from ERα (ERα full-length): failed to displace the Fluormone; ERα destabilization (immunoblot) (ERα in MCF-7 cells): no significant ERα destabilization; thermal stabilization of AHR (nano-DSF) (AHR-Hsp90-XAP2): promote AHR destabilization

**Q.** Which “Inhibition of Proliferation” value [2] does the source give for `Cc1cccn2cc(-c3ccccc3F)nc12` [X19718] here?
**A.** No

**Q.** And the “displacement of the Fluormone tracer from ERα” value (ERα full-length)?
**A.** failed to displace the Fluormone

**Q.** What about the “ERα destabilization (immunoblot)” value (ERα in MCF-7 cells) of the same compound?
**A.** no significant ERα destabilization

**Q.** What about the “thermal stabilization of AHR (nano-DSF)” value (AHR-Hsp90-XAP2) of the same compound?
**A.** promote AHR destabilization

**Q.** Which EC50 (AHR) does the source give for `Clc1cc2c(cc1Cl)Oc1cc(Cl)c(Cl)cc1O2` [Dioxin, reference compound] here?
**A.** 1.24 nM

**Q.** Which “Inhibition of Proliferation” value [2] does the source give for `Fc1ccc(-c2cn3cc(C(F)(F)F)ccc3n2)cc1` [X20046] here?
**A.** Yes

**Q.** And the “ERα destabilization (immunoblot)” value (ERα in MCF-7 cells)?
**A.** most proficient in destabilizing ERα

**Q.** And the “inhibition of colony expansion in the presence of AHR antagonist CH223191” value (MCF-7 cells)?
**A.** clearly abrogated by the AHR antagonist CH223191

**Q.** What about the “expression of AHR target genes (RT-PCR)” value [3] of the same compound?
**A.** enhanced the transcriptional activity of the AHR target genes in both MCF-7 and T47D cells

**Q.** What does the source list for `Cc1cccn2cc(-c3ccc(F)cc3)nc12` [X19167]?
**A.** Inhibition of Proliferation [2]: No; displacement of the Fluormone tracer from ERα (ERα full-length): failed to displace the Fluormone; ERα destabilization (immunoblot) (ERα in MCF-7 cells): no significant ERα destabilization; thermal stabilization of AHR (nano-DSF) (AHR-Hsp90-XAP2): promote AHR destabilization; EC50 (AHR): 173 nM

**Q.** Which results are given for `O=C1NC(=O)C(c2ccccc2)(c2ccccc2)N1` [Phenytoin]?
**A.** Conc. acceptor well ([1]; replica 1): 7.15 µM; Conc. donor well ([1]; replica 1): 112.02 µM; Conc. acceptor well ([1]; replica 2): 10.14 µM; Conc. donor well ([1]; replica 2): 117.35 µM; Conc. acceptor well ([1]; replica 3): 14.06 µM; Conc. donor well ([1]; replica 3): 120.53 µM
